Data as given in ChEMBL document CHEMBL3507680, “University of Dundee, Gates Library screen for HepG2 cell viability”.

Assay: Human HepG2 cell viability assay in 384 well format
Type: toxicity, cell-based
Design: dose 125 nL, time 70.5 hour; cytotoxicity at 70.5 h: concentration not given beside the values
Details: HepG2 cells, read-out: Inhibition

Row | Structure (SMILES) | cytotoxicity at 70.5 h [%]
1 | CCN1CC2(CCC1=O)CCN(Cc1cccc(C#N)c1)CC2 | -4.47
2 | CNS(=O)(=O)CCNCC1(O)CCCN(CCC2CCCCC2)C1=O (centres undefined) | -0.181
3 | CC(=O)NC1CCN(c2ncnc3c2c(C)nn3C)C1 (centres undefined) | -7.17
4 | CC(C)[C@H]1COC(=O)N1Cc1nccn1C(C)C | -4.48
5 | CCc1nc(NC2CCCN(C(=O)c3cccs3)C2)c2cnn(C)c2n1 (centres undefined) | 7.73
6 | CC(c1cccc(-c2nccn2CCc2ccccn2)c1)N(C)C (centres undefined) | -7.37
7 | COc1cccc(N2CCN(Cc3nccn3C(C)C)CC2=O)c1 | -2.87
8 | CN(CCCSc1ccccc1)C(=O)Cn1ncc(N(C)C)cc1=O | -7.24
9 | CC1(C)Cc2nc(C(C)(C)C)ncc2C(NC(=O)CN)C1 (centres undefined) | -10.1
10 | Cc1cccc2c1nc(CCO)n2-c1ccc(C(=O)N2CCOCC2)o1 | -1.12
11 | Cn1ccnc1SCCNC(=O)c1c[nH]nc1C1CCCCC1 | -8.06
12 | Cc1cc(NCCc2cnccn2)nc(-c2ccccc2O)n1 | -12.4
13 | Cc1[nH]ccc1C(=O)N1CCC2(CC1)c1nc[nH]c1CCN2S(C)(=O)=O | -4.51
14 | Cc1cnc(CNCc2cn(CCN3CCSCC3)nc2C)cn1 | 24.8
15 | CNC(=O)c1nc(CN2CCOC(C(F)(F)F)C2)no1 (centres undefined) | 28.6
16 | Cc1cc(N2CCC(n3cc(CN4CCSCC4)nn3)CC2)ccn1 | 1.06
17 | CCc1cnc(C)nc1NCCN1CCOCC1 | -0.575
18 | CN(CC(O)CO)c1nc(-c2cccnc2)nc2c1CCNC2 (centres undefined) | -17.2
19 | O=C(CCc1cn[nH]c1)N1C[C@@H](CN2CCCCCC2)[C@@H](CO)C1 | -8.48
20 | CC(C)C[C@@H](CO)n1cc(-c2cnc(-c3ccco3)nc2)nn1 | -6.45
21 | CCC[C@H]1CN(Cc2ccc(N(C)C)nc2)C[C@@H]1NS(=O)(=O)CC | -1.04
22 | CC(C)C(=O)NCC(=O)N1CCC2(CC1)c1ccccc1[C@@H](N)[C@@H]2O | 13.2
23 | CC(CCn1cccn1)Nc1ccc(-c2nccn2C)nn1 (centres undefined) | 22.7
24 | Cc1cc(C)nc(N2CCN(Cc3cc4n(n3)CCNC4)CC2)n1 | -8.76
25 | CCN(Cc1cnn(CC)c1)C(=O)Cn1c(=O)c(C)nc2ccccc21 | -17.7
26 | O=C(O)c1cc(-c2cccnc2)cc(S(=O)(=O)NCc2ccccn2)c1 | -5.41
27 | CCn1ncnc1C(C)Nc1cc(C2CCNCC2)nc(C)n1 (centres undefined) | 26.8

Row | Structure (SMILES) | cytotoxicity at 70.5 h [%]
28 | COC1CCN(C(=O)Cn2ncc(N3CCCCC3)cc2=O)C1 (centres undefined) | -2.54
29 | Cc1[nH]c2c(F)cccc2c1CC(=O)NCCCNc1cccnc1 | -11.8
30 | Cc1ccc(C)c(OCCNC(=O)C2CCOC2)c1 (centres undefined) | -1.02
31 | CC(c1cccc(-c2ncccc2F)c1)N(C)C (centres undefined) | -14.8
32 | O=C(c1ccc(C2CCCN2)s1)N1CCN(C(=O)N2CCOCC2)CC1 (centres undefined) | -6.24
33 | CC(C)c1cc(N[C@H](C(N)=O)C(C)C)n2nccc2n1 | -4.75
34 | COc1cccc(Cn2ncnc2CNC(C)=O)c1 | -10.5
35 | CC(=O)NCC(=O)N1CCc2[nH]c(-c3ccccc3)nc2C1 | -1.22
36 | CCSCCNC(=O)Nc1cc(C(=O)N2CCOCC2)ccc1Cl | -3.96
37 | CNS(=O)(=O)c1ccc(CN2CCN3CCNC(=O)C3C2)cc1 (centres undefined) | -6.1
38 | COC(=O)c1cc(OCC2CCC2)cc(C(=O)N[C@@H]2CCCNC2)c1 | -18.2
39 | COc1cccc(OC2CN(C(=O)C3CCCN(C(=O)N(C)C)C3)C2)c1 (centres undefined) | 26.8
40 | CSCc1noc(CN2CCC3(CC2)CC(=O)N(CC=C(C)C)C3)n1 | -11.8
41 | CC(c1ccc2c(c1)OCCO2)N(C)C(=O)c1ccnnc1 (centres undefined) | -5.69
42 | COc1ccc(-n2ccnc2-c2cnc(C(C)C)nc2)cc1C(=O)O | -3.39
43 | OCC1(CC2CC2)CCCN(Cc2ccc(C(F)(F)F)nc2)C1 (centres undefined) | -6.45
44 | CC(=O)N1C[C@@H]2CC[C@H](C1)N(S(=O)(=O)c1ccc(C#N)cc1Cl)C2 | -12.7
45 | Cc1ccc(-c2ncc(C(=O)N3CCC[C@H](N)C3)c(O)n2)cc1 | -6.29
46 | Cc1ccc(NC2CCCN(C3Cc4ccccc4C3)C2)nn1 (centres undefined) | -4.1
47 | Cc1nc(-c2cccnc2)ncc1C(=O)N1CCC(C(C)N(C)C)CC1 (centres undefined) | -2.91
48 | CCN1CCC(N2CCN(c3cc(-c4nc(C)no4)ccn3)CC2)CC1 | 11.7
49 | COC[C@]1(O)CCN(C2CCN(c3ccc(OC)cc3)CC2)CC1(C)C | 23.9
50 | Cc1cc(C)n(C2CCN(c3ncnc4sc5c(c34)CCNC5)C2)n1 (centres undefined) | -18.5
51 | O=c1c2cccc(C(F)(F)F)c2ncn1C1CCNC1 (centres undefined) | -13.6
52 | c1ccc(Oc2ccc(OC34CCCN(CC3)C4)cc2)cc1 (centres undefined) | -9.13
53 | O=C(CC1CCc2ccccc21)NCCSc1ccccn1 (centres undefined) | 11.8
54 | COc1ccccc1CN(Cc1cccc(C)c1)C(=O)[C@@H](N)CC(=O)O | 8.65

Row | Structure (SMILES) | cytotoxicity at 70.5 h [%]
55 | CN(C)C(=O)CN1C[C@@H]2CC[C@H](C1)N(Cc1ccc(Cl)cc1Cl)C2 | 2.51
56 | Cc1noc(-c2ccc(N3CCC[C@H]3CO)nc2)n1 | -0.652
57 | CCc1nnsc1C(=O)N1CCCC(c2nc3ccccc3[nH]2)C1 (centres undefined) | -14.3
58 | CN(C)C(=O)N1CC[C@]2(O)CCN(C(=O)c3ccc(C#N)nc3)C[C@@H]2C1 | 3.74
59 | O=C(NCCOCCO)[C@@]12CNC[C@@H]1CN(C1CCCC1)C2 | 2.24
60 | O=C(c1cnc(Nc2ccccc2)nc1)N1CCC2(CCNCC2)CC1 | -13.5
61 | COc1ccccc1-c1ncc(CN2CCC3(CCN(C)C3)CC2)cn1 | -8.29
62 | O=C(N[C@@H]1CCN(C(=O)c2cc[nH]c2)C[C@H]1O)c1ccccn1 | -0.892
63 | O=C(CCNC(=O)c1ccccc1F)NCCNc1cccnc1 | 1.94
64 | CCc1nc2ccccc2n1C(CC)C(=O)N(C)Cc1nc(C)c[nH]1 (centres undefined) | 21.7
65 | Cn1cnnc1CC1CCN(Cc2c(Cl)cncc2Cl)CC1 | 16.9
66 | CCNc1ncc(C(=O)NCCc2ccc(C)c(C)c2)cn1 | -4.37
67 | CCn1ncc2c1NC(=O)CC2c1cnc(-c2ccccn2)nc1 (centres undefined) | -2.85
68 | Cc1ncoc1C(=O)N1CCc2[nH]nc(-c3ccc4c(c3)OCO4)c2C1 | 16.8
69 | CS(=O)(=O)c1ccc(CC(=O)N2CCN3CCNC(=O)C3C2)cc1 (centres undefined) | -2.91
70 | CN(Cc1noc2c1CCCC2)C(=O)Nc1cncc(F)c1 | -7.85
71 | CC(C)CNC(=O)CN1CCCC(c2ccc(C(=O)O)cc2)C1 (centres undefined) | -6.21
72 | CN(Cc1ccccc1-n1cccn1)c1nc(N)nc2c1CCNCC2 | 4.77
73 | Cc1ccccc1N1CCN(C(=O)c2cnc(C3CC3)nc2)C(C)C1 (centres undefined) | -2.79
74 | Cc1ncc(CN2CCC3(CC2)CC(=O)N(C)C3)cn1 | 4.13
75 | Cc1oc(C(C)C)cc1C(=O)N1C[C@H]2CC[C@@H]1CN(S(=O)(=O)N(C)C)C2 | -7.52
76 | O=C(c1ccccn1)N1C[C@@H]2CC[C@H](C1)N(C(=O)Cc1cccs1)C2 | -10
77 | CCc1cn[nH]c1C1CCCN(C(=O)c2ncoc2C(C)C)C1 (centres undefined) | -2.87
78 | COc1ccc(CN2C[C@@H]3CC[C@H](C2)N(S(=O)(=O)C2CC2)C3)cc1 | -5.41
79 | Cc1ccc2oc(=O)n(CC(=O)N3CCC4(CC3)CN(C)C(=O)O4)c2c1 | 13.2
